Holding throughout (assay type): functional
A short description of assay [1]: Cytotoxicity against human PANC1 cells assessed as cell growth at 10 uM after 72 hrs by Cell Titer 96 cell proliferation assay relative to control. The following applies: PANC-1, 72 h, read-out: Activity.
Assay [2] in a line: Cytotoxicity against human MIAPaCa2 cells assessed as cell growth at 10 uM after 72 hrs by Cell Titer 96 cell proliferation assay relative to control. The following applies: MIA PaCa-2, 72 h, read-out: Activity.
Assay [3] in a line: Cytotoxicity against human BxPC3 cells assessed as cell growth at 10 uM after 72 hrs by Cell Titer 96 cell proliferation assay relative to control. To be noted: BXPC-3, 72 h, read-out: Activity.

As for `C=C(C(=O)OC)C(O)c1ccc(F)cc1` (stereo not given), the growth at 10 µM in assay [1] came out at 136%; in assay [2] it was 118%; in assay [3] it was 137%.
Take `C=C(C(=O)OC)C(O)c1ccc(C(F)(F)F)cc1` (stereo not given): the growth at 10 µM in assay [1] stood at 93%; in assay [2], 27%; in assay [3] it was 69%.
Turning to `C=C(C(=O)OC)C(O)c1ccccc1` (stereo not given), the growth at 10 µM in assay [1] is 118%; in assay [2], 119%; in assay [3] it was 129%.
In the same order, the values of `C=C(C(=O)OC)C(O)c1ccc([N+](=O)[O-])cc1` (stereo not given) are 138%, 98% and 123%.
The like results for `C=C(C(=O)OC)C(C)CO` (stereo not given) were, in that order, 120%, 124% and 126%.
`C=C(C(=O)OC)C(CO)C1CCCCC1` (stereo not given): the growth at 10 µM in assay [1] came to 164%; in assay [2], 98%; in assay [3], 86%.
In the same order, the values of `C=C(C(=O)OC)C(CO)c1ccccc1` (stereo not given) are 102%, 29% and 60%.
In the same order, the values of `C=C(CC(O)c1ccccc1)C(=O)OC` (stereo not given) are 67%, 14% and 1%.
The like results for `C=C(C(=O)OCC)C(O)c1ccc(OC)cc1` (stereo not given) were, in that order, 108%, 110% and 130%.
`C=C(C(=O)OC)C(O)c1ccc(C#N)cc1` (stereo not given): the growth at 10 µM in assay [1] was 131%; in assay [2] it was 94%; in assay [3], 126%.
The like results for `C=C(C(=O)OC)C(O)c1cccc(F)c1` (stereo not given) were, in that order, 166%, 129% and 134%.
Consider `C=C(C(=O)OC)C(O)c1ccccc1F` (stereo not given), for which the growth at 10 µM in assay [1] was found to be 157%; in assay [2], 128%; in assay [3], 137%.
The like results for `C=C(C(=O)OC)C(O)c1c(F)c(F)c(F)c(F)c1F` (stereo not given) were, in that order, 147%, 111% and 117%.
In the same order, the values of `C=C(C(=O)OC)C(O)c1ccccc1C(F)(F)F` (stereo not given) are 169%, 127% and 142%.
In the same order, the values of `C=C1C(=O)OC1c1ccc(C#N)cc1` (stereo not given) are 102%, 99% and 116%.
`C=C1C(=O)OC1c1ccc([N+](=O)[O-])cc1` (stereo not given): the growth at 10 µM amounted to 136% in assay [1], 123% in assay [2] and 133% in assay [3].
The like results for `C=C(C(=O)O)C(O)c1ccccc1` (stereo not given) were, in that order, 127%, 94% and 110%.
The like results for `C=C(C(=O)O)C(O)c1ccc(OC)cc1` (stereo not given) were, in that order, 125%, 106% and 110%.
The like results for `C=C(C(=O)O)C(O)c1ccc(C#N)cc1` (stereo not given) were, in that order, 108%, 92% and 114%.
With `C=C(C(=O)O)C(O)c1ccc([N+](=O)[O-])cc1` (stereo not given), the growth at 10 µM in assay [1] came to 134%; in assay [2] it was 130%; in assay [3] it was 124%.
In the same order, the values of `C=C(C(=O)O)C(O)c1ccc(C(F)(F)F)cc1` (stereo not given) are 129%, 119% and 121%.
On to `C=C1C(=O)O[C@@H]2C3O[C@]3(C)CC/C=C(\C)CC[C@@H]12` (stereo not given in full), for which the figures for the growth at 10 µM in assay [1], in assay [2] and in assay [3] were 22%, 11% and 12%, respectively.
In the same order, the values of `C=C1C(=O)O[C@H](c2ccccc2)[C@@H]1c1ccccc1` (relative stereo) are 12%, 9% and 3%.
In the same order, the values of `C=C(C(=O)OC)[C@@H](c1ccccc1)[C@H](O)c1ccccc1` (relative stereo) are 14%, 9% and 2%.
In the same order, the values of `C=C(C(=O)OC)[C@@H](C)[C@@H](C)O` (relative stereo) are 110%, 147% and 122%.
With `C=C(C(=O)OC)[C@@H](C1CCCCC1)[C@@H](C)O` (relative stereo), the growth at 10 µM in assay [1] is 145%; in assay [2], 77%; in assay [3], 120%.
In the same order, the values of `C=C(C(=O)OC)[C@@H](C)[C@H](O)c1ccccc1` (relative stereo) are 91%, 32% and 49%.
Turning to `C=C(C(=O)OC)[C@@H](CCC)[C@H](O)c1ccccc1` (relative stereo), the growth at 10 µM was determined as 104% in assay [1], 32% in assay [2] and 38% in assay [3].
The like results for `C=C(C(=O)OC)[C@@H](c1ccccc1)[C@@H](C)O` (relative stereo) were, in that order, 96%, 24% and 27%.
The like results for `C=C(C(=O)OC)[C@@H](c1ccccc1)[C@H](O)C1CCCCC1` (relative stereo) were, in that order, 83%, 29% and 23%.
In the same order, the values of `C=C(C(=O)OC)[C@@H](c1ccccc1)[C@H](O)CCC` (relative stereo) are 33%, 16% and 8%.
Regarding `C=C(C(=O)OC)[C@@H](c1ccccc1)[C@H](O)Cc1ccccc1` (relative stereo), the growth at 10 µM is 14% in assay [1], 16% in assay [2] and 6% in assay [3].
Turning to `C=C(C(=O)OC)[C@@H](c1ccccc1)[C@H](OC)c1ccccc1` (relative stereo), the growth at 10 µM stood at 123% in assay [1], 102% in assay [2] and 94% in assay [3].
The like results for `C=C(C(=O)OC)[C@@H](c1ccccc1)[C@H](O[Si](C)(C)C(C)(C)C)c1ccccc1` (relative stereo) were, in that order, 135%, 110% and 117%.
The like results for `C=C(C(=O)OCC)[C@@H](c1ccccc1)[C@H](O)c1ccccc1` (relative stereo) were, in that order, 5%, 13% and 3%.
In the same order, the values of `C=C(C(=O)OCc1ccccc1)[C@@H](c1ccccc1)[C@H](O)c1ccccc1` (relative stereo) are 6%, 12% and 2%.
In the case of `C=C(C(=O)Oc1ccccc1)[C@@H](c1ccccc1)[C@H](O)c1ccccc1` (relative stereo), the results for the growth at 10 µM in assay [1], in assay [2] and in assay [3] were 9%, 8% and 1%, respectively.
The like results for `C=C(C(C)=O)[C@@H](c1ccccc1)[C@H](O)c1ccccc1` (relative stereo) were, in that order, 105%, 53% and 104%.
`C=C(C[C@@H](c1ccccc1)[C@H](O)c1ccccc1)C(=O)OC` (relative stereo): the values for the growth at 10 µM in assay [1], in assay [2] and in assay [3] were 124%, 59% and 129%, respectively.
Turning to `O=C1O[C@H](c2ccccc2)[C@H](c2ccccc2)/C1=C\c1ccccc1` (relative stereo), the results for the growth at 10 µM in assay [1], in assay [2] and in assay [3] were 105%, 87% and 117%, respectively.

For the origin of these results see ChEMBL document CHEMBL3616425, “Factors influencing the cytotoxicity of α-methylene-γ-hydroxy esters against pancreatic cancer” (2015).
